Measured values from PubChem BioAssay AID2083 (Sanford-Burnham Center for Chemical Genomics, 2009).

Target: Dual specificity protein phosphatase 1 (Homo sapiens) (UniProt P28562)
Test: inhibitors of DUSP1 phosphatase activity – biochemical, DiFMUP, fluorescence, selectivity assay for VHR1 inhibitor project, SAR follow-up (AID 2083)
Conditions: recombinant MKP-1, DiFMUP fluorescence; call rule not given here

Chain of Dual specificity protein phosphatase 1 (Homo sapiens) (P28562 whole entry, looked up): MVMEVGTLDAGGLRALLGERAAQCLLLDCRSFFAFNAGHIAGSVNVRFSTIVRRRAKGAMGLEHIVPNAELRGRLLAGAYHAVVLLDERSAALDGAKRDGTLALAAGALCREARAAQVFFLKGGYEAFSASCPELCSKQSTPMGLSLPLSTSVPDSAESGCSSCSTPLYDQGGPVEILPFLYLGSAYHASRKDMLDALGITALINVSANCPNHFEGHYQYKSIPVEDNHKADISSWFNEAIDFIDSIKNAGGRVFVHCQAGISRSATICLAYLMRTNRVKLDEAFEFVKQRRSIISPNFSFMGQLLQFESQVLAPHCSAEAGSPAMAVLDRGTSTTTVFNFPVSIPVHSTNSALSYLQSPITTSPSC

IC50, active:
O=C1/C(=C/c2cn(-c3ccccc3)nc2-c2ccc(OCc3ccccc3F)cc2)SC(=S)N1CCS(=O)(=O)O 520 nM
O=C1/C(=C/c2cn(-c3ccccc3)nc2-c2ccc(S(=O)(=O)N3CCCCC3)cc2)SC(=S)N1CCS(=O)(=O)O 2800 nM
O=C1/C(=C/c2cn(-c3ccccc3)nc2-c2ccc(OCc3ccccc3)cc2)SC(=S)N1CCS(=O)(=O)O 780 nM
O=C1/C(=C/c2cn(-c3ccccc3)nc2-c2ccc(OCc3ccccc3Cl)cc2)SC(=S)N1CCS(=O)(=O)O 470 nM
O=C1/C(=C/c2cn(-c3ccccc3)nc2-c2ccc(OCc3ccc(Cl)cc3)cc2)SC(=S)N1CCS(=O)(=O)O 460 nM
